The subject of assay [1] is SEM cells. Kind of assay: Cell viability assay (CellTiter-Glo, 7 days), SEM. The following applies: Homo sapiens, 168 h, read-out: IC50 (growth, cell viability). In kind it is cell-based, human. The method, then:
Cells were plated in 50 μL of the corresponding media in 96-well plates. A 2-fold dilution series of 2* concentrated LLC0424 was prepared in a medium with the highest concentration being 60 μM. Then 50 μL of the 2× compound-containing mixture was added to each well with 6 replicates for each concentration, reaching 1× concentration, with the highest concentration being 30 μM. The plate was incubated for 7 days. At the end point, the CellTiter-Glo assay (Promega) was then performed according to the manufacturer’s instruction to determine cell proliferation. The luminescence signal intensity of each well was acquired on an Infinite M1000Pro microplate reader and the data was analyzed using GraphPad Prism software (GraphPad Software).
(In general: In ATP-based viability assays light output follows the ATP content of the culture.)

For assay [2], the system named is SEM cells. Briefly: Proliferation assay (CellTiter-Glo, 9 days), SEM. The following applies: 5 μM (Fig 6E) or 2 μM (Fig S4A). The assay is classed as cell-based, human. The method, then: 2 × 10^3 cells per well were seeded in 5 replicates into 96-well plates and treated with 5 μM of the compound. Every 4 days, we added the compound with 5 μL of the 20* compound-containing mixture, reaching 1*concentration. Cell proliferation was evaluated by CellTiter-Glo assay (Promega).

A further assay concerns the target T1, NSD2 (Homo sapiens, UniProt O96028, E1099K).
T1 construct: from tissue; host or cells: SEM subcutaneous xenograft tumours in CB17 SCID mice
T1 sequence (O96028 1-1365 E1099K): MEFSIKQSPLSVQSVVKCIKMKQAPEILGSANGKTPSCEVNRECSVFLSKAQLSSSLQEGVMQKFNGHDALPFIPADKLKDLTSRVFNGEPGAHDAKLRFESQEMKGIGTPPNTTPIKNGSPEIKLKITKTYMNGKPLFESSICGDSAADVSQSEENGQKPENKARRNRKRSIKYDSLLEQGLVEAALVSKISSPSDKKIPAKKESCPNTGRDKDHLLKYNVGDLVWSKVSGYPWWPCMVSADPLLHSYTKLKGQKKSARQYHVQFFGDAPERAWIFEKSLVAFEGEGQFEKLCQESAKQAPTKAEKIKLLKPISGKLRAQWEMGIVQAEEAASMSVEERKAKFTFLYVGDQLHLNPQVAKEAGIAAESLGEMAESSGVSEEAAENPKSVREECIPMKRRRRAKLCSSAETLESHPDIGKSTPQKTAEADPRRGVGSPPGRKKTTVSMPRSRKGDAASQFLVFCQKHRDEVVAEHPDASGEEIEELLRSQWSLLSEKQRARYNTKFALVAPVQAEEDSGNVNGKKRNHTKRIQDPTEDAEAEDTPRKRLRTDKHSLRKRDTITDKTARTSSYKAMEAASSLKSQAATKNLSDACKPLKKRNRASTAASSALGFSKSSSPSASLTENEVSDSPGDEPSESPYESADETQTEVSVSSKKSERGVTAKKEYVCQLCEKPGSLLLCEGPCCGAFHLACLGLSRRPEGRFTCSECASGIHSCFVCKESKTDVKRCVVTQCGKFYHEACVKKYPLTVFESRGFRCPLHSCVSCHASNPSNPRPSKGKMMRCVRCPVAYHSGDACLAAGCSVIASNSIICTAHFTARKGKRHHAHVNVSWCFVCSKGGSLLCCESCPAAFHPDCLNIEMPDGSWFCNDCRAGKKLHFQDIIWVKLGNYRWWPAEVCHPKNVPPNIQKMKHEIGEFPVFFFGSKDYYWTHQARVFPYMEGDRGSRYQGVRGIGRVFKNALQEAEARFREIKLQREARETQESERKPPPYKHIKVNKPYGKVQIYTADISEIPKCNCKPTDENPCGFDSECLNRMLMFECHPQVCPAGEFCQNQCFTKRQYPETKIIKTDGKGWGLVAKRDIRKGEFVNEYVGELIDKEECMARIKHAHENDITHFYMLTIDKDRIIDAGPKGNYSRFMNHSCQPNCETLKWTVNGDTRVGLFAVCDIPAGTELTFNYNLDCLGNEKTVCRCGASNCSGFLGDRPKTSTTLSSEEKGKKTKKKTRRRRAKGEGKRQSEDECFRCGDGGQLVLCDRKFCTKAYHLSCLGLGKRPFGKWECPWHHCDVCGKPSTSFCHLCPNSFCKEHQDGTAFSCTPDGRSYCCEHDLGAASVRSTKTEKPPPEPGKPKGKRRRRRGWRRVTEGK
Briefly: Pharmacodynamic assessment in SEM xenograft model (IHC, Western blot). The assay is classed as in vivo, mice. The following applies: 60 mg/kg iv, 5 consecutive days, versus vehicle. The protocol: We finally performed pharmacodynamic assessment of LLC0424 in both the SEM and 22RV1 xenograft model. Based on the solubility of LLC0424 and the tolerance of the mice, we chose 60 mg/kg as the dosage for the pharmacodynamic study. LLC0424 was administrated by intravenous (iv) or intraperitoneal (ip) injection at a dose of 60 mg/kg for 5 consecutive days. The tumor tissues were harvested at day 5 and subjected to histology and Western blot analysis (Figure 7A, and SI, Figure S6A).
First, 6–8 weeks old male CB17 severe combined immunodeficiency (SCID) mice were procured from the University of Michigan breeding colony. Subcutaneous tumors were established at both sides of the dorsal flank of mice. Tumors were measured at least biweekly using digital calipers following the formula (π/6) (L × W2), where L is length and W is width of the tumor. At the end of the studies, mice were sacrificed and tumors extracted. For each tumor, a part is […] followed by embedding in paraffin to make tissue blocks. The blocks were sectioned at […] for immunohistochemistry analysis. Another part is made into tissue lysates for Western blotting analysis. The University of Michigan Institutional Animal Care and Use Committee (IACUC) approved all in vivo studies. […]

Here are results for 1 compound from PMC11094793, “Discovery of LLC0424 as a Potent and Selective in Vivo NSD2 PROTAC Degrader” (Journal of Medicinal Chemistry, 2024).

The IC50 is the midpoint of a concentration-inhibition curve. Take `O=C1CCC(N2C(=O)c3ccc(N4CCC(NC(=O)c5ccc(NC(=O)c6ccc(CN(C(=O)c7ccc8c(c7)OCC(=O)N8)C7CC7)cc6)cc5)CC4)cc3C2=O)C(=O)N1` (stereo not drawn) [compound 10l, N-Cyclopropyl-N-(4-((4-((1-(2-(2,6-dioxopiperidin-3-yl)-1,3-dioxoisoindolin-5-yl)piperidin-4-yl)carbamoyl)phenyl)carbamoyl)benzyl)-3-oxo-3,4-dihydro-2H-benzo[b][1,4]oxazine-7-carboxamide]: in the assay with SEM cells [1], the half-maximal inhibitory concentration (IC50) was determined as 3.56 µM. Also, the “cell growth on treatment for 9 days” value in the assay with SEM cells [2] is “significantly inhibited”. The “NSD2 level in tumor tissue” value at NSD2 is “significantly downregulated”.
